Assay results from the NIST ThermoML archive (doi:10.1016/j.tca.2004.08.013).
± gives the expanded uncertainty stated by the source.

Experiment: xn = mol fraction of the nth substance listed
Settings: 101.3 kPa, Liquid

CCCN [propan-1-amine] + ClC(Cl)(Cl)Cl
Settings | mass density, 303.15 K [kg/m3] | mass density, 313.15 K [kg/m3] | viscosity, 303.15 K [mPa·s] | viscosity, 313.15 K [mPa·s]
x1 = 0.0071 | 1569.84 ± 1.5 | 1550.16 ± 1.5 | 0.859 ± 0.012 | 0.761 ± 0.011
x1 = 0.0184 | 1561.86 ± 1.5 | 1542.3 ± 1.5 | 0.866 ± 0.012 | 0.763 ± 0.011
x1 = 0.0285 | 1554.57 ± 1.5 | 1535.07 ± 1.5 | 0.873 ± 0.012 | 0.764 ± 0.011
x1 = 0.0386 | 1547.37 ± 1.5 | 1527.92 ± 1.4 | 0.876 ± 0.012 | 0.765 ± 0.011
x1 = 0.0479 | 1540.78 ± 1.5 | 1521.37 ± 1.4 | 0.88 ± 0.012 | 0.768 ± 0.011
x1 = 0.0574 | 1533.92 ± 1.4 | 1514.52 ± 1.4 | 0.885 ± 0.012 | 0.77 ± 0.011
x1 = 0.0661 | 1527.48 ± 1.4 | 1508.11 ± 1.4 | 0.885 ± 0.012 | 0.772 ± 0.011
x1 = 0.0748 | 1521.24 ± 1.4 | 1501.94 ± 1.4 | 0.888 ± 0.012 | 0.774 ± 0.011
x1 = 0.0841 | 1514.3 ± 1.4 | 1495.14 ± 1.4 | 0.892 ± 0.012 | 0.775 ± 0.011

CCCCNCCCC [dibutylamine] + ClC(Cl)Cl
Settings | mass density, 303.15 K [kg/m3] | mass density, 313.15 K [kg/m3] | viscosity, 303.15 K [mPa·s] | viscosity, 313.15 K [mPa·s]
x1 = 0.0103 | 1455.46 ± 1.3 | 1433.69 ± 1.3 | 0.53 ± 0.008 | 0.48 ± 0.007
x1 = 0.0197 | 1441.84 ± 1.3 | 1420.36 ± 1.2 | 0.54 ± 0.008 | 0.489 ± 0.007
x1 = 0.0294 | 1428.11 ± 1.3 | 1406.9 ± 1.2 | 0.552 ± 0.008 | 0.493 ± 0.007
x1 = 0.0381 | 1415.97 ± 1.2 | 1394.99 ± 1.2 | 0.56 ± 0.008 | 0.502 ± 0.008
x1 = 0.0482 | 1401.96 ± 1.2 | 1381.38 ± 1.2 | 0.572 ± 0.008 | 0.51 ± 0.008
x1 = 0.0593 | 1387.11 ± 1.2 | 1366.85 ± 1.1 | 0.584 ± 0.008 | 0.516 ± 0.008
x1 = 0.0684 | 1375.09 ± 1.1 | 1355.19 ± 1.1 | 0.599 ± 0.009 | 0.528 ± 0.008
x1 = 0.0788 | 1361.57 ± 1.1 | 1342.11 ± 1.1 | 0.612 ± 0.009 | 0.535 ± 0.008
x1 = 0.0876 | 1350.35 ± 1.1 | 1331.13 ± 1.1 | 0.624 ± 0.009 | 0.542 ± 0.008

CCN(CC)CC [triethylamine] + O=[N+]([O-])c1ccccc1
303.15 K
Settings | mass density [kg/m3] | viscosity [mPa·s]
x1 = 0.0113 | 1186.81 ± 0.81 | 1.59 ± 0.021
x1 = 0.0201 | 1181.7 ± 0.79 | 1.569 ± 0.021
x1 = 0.0288 | 1176.68 ± 0.78 | 1.547 ± 0.02
x1 = 0.0404 | 1169.97 ± 0.77 | 1.521 ± 0.02
x1 = 0.0506 | 1164.25 ± 0.76 | 1.499 ± 0.02
x1 = 0.0601 | 1158.7 ± 0.75 | 1.48 ± 0.02
x1 = 0.0688 | 1153.74 ± 0.74 | 1.466 ± 0.019
x1 = 0.0819 | 1146.33 ± 0.72 | 1.44 ± 0.019
x1 = 0.091 | 1141.21 ± 0.71 | 1.422 ± 0.019
x1 = 0.1005 | 1136.48 ± 0.7 | 1.407 ± 0.019

CCN(CC)CC [triethylamine] + Clc1ccccc1
303.15 K
Settings | mass density [kg/m3] | viscosity [mPa·s]
x1 = 0.0118 | 1089.87 ± 0.65 | 0.709 ± 0.01
x1 = 0.0193 | 1086.26 ± 0.64 | 0.702 ± 0.01
x1 = 0.0299 | 1081.32 ± 0.63 | 0.694 ± 0.01
x1 = 0.0415 | 1075.87 ± 0.62 | 0.685 ± 0.01
x1 = 0.0493 | 1072.21 ± 0.61 | 0.677 ± 0.01
x1 = 0.0595 | 1067.48 ± 0.6 | 0.672 ± 0.01
x1 = 0.071 | 1062.15 ± 0.59 | 0.664 ± 0.009
x1 = 0.0792 | 1058.37 ± 0.59 | 0.658 ± 0.009
x1 = 0.0893 | 1053.74 ± 0.58 | 0.652 ± 0.009
x1 = 0.0994 | 1049.13 ± 0.57 | 0.645 ± 0.009

CCN(CC)CC [triethylamine] + C1COCCO1
303.15 K
Settings | mass density [kg/m3] | viscosity [mPa·s]
x1 = 0.0138 | 1015.32 ± 0.55 | 1.059 ± 0.014
x1 = 0.0232 | 1010.65 ± 0.54 | 1.042 ± 0.014
x1 = 0.0349 | 1004.86 ± 0.53 | 1.018 ± 0.014
x1 = 0.0453 | 999.87 ± 0.52 | 0.998 ± 0.014
x1 = 0.0551 | 995.17 ± 0.52 | 0.98 ± 0.013
x1 = 0.0691 | 988.57 ± 0.52 | 0.955 ± 0.013
x1 = 0.0803 | 983.41 ± 0.52 | 0.932 ± 0.013
x1 = 0.0909 | 978.57 ± 0.52 | 0.914 ± 0.012
x1 = 0.1006 | 974.22 ± 0.52 | 0.899 ± 0.012
x1 = 0.1128 | 968.78 ± 0.52 | 0.877 ± 0.012

CCN(CC)CC [triethylamine] + CCOC(C)=O
303.15 K
Settings | mass density [kg/m3] | viscosity [mPa·s]
x1 = 0.0127 | 885.47 ± 0.59 | 0.395 ± 0.006
x1 = 0.0205 | 883.69 ± 0.59 | 0.389 ± 0.006
x1 = 0.0323 | 881 ± 0.59 | 0.386 ± 0.006
x1 = 0.0407 | 879.1 ± 0.59 | 0.382 ± 0.006
x1 = 0.0522 | 876.53 ± 0.6 | 0.379 ± 0.006
x1 = 0.0608 | 874.62 ± 0.6 | 0.376 ± 0.006
x1 = 0.0702 | 872.41 ± 0.6 | 0.374 ± 0.006
x1 = 0.0783 | 870.58 ± 0.6 | 0.371 ± 0.006
x1 = 0.09 | 867.91 ± 0.6 | 0.369 ± 0.006
x1 = 0.0996 | 866.05 ± 0.6 | 0.367 ± 0.006

CCCCN [1-butanamine] + ClC(Cl)Cl
Settings | mass density, 303.15 K [kg/m3] | mass density, 313.15 K [kg/m3] | viscosity, 303.15 K [mPa·s] | viscosity, 313.15 K [mPa·s]
x1 = 0.0091 | 1462.78 ± 1.3 | 1440.74 ± 1.3 | 0.528 ± 0.008 | 0.478 ± 0.007
x1 = 0.0196 | 1453.53 ± 1.3 | 1431.89 ± 1.3 | 0.536 ± 0.008 | 0.485 ± 0.007
x1 = 0.0289 | 1445.49 ± 1.3 | 1423.81 ± 1.2 | 0.544 ± 0.008 | 0.493 ± 0.007
x1 = 0.0409 | 1435.01 ± 1.3 | 1413.72 ± 1.2 | 0.55 ± 0.008 | 0.499 ± 0.007
x1 = 0.0483 | 1428.52 ± 1.2 | 1407.41 ± 1.2 | 0.556 ± 0.008 | 0.505 ± 0.008
x1 = 0.0578 | 1420.29 ± 1.2 | 1399.24 ± 1.2 | 0.562 ± 0.008 | 0.511 ± 0.008
x1 = 0.0676 | 1411.7 ± 1.2 | 1390.72 ± 1.2 | 0.566 ± 0.008 | 0.517 ± 0.008
x1 = 0.0775 | 1403.16 ± 1.2 | 1382.3 ± 1.1 | 0.569 ± 0.008 | 0.521 ± 0.008
x1 = 0.0848 | – | – | 0.573 ± 0.008 | 0.525 ± 0.008

CCN(CC)CC [triethylamine] + CCCCOC(C)=O
303.15 K
Settings | mass density [kg/m3] | viscosity [mPa·s]
x1 = 0.0065 | 870.3 ± 0.61 | 0.641 ± 0.009
x1 = 0.0144 | 869.1 ± 0.61 | 0.638 ± 0.009
x1 = 0.0226 | 867.85 ± 0.61 | 0.631 ± 0.009
x1 = 0.0293 | 866.83 ± 0.61 | 0.628 ± 0.009
x1 = 0.0378 | 865.53 ± 0.61 | 0.623 ± 0.009
x1 = 0.0454 | 864.42 ± 0.61 | 0.618 ± 0.009
x1 = 0.0509 | 863.54 ± 0.61 | 0.613 ± 0.009
x1 = 0.0596 | 862.22 ± 0.61 | 0.607 ± 0.009
x1 = 0.0668 | 861.13 ± 0.61 | 0.603 ± 0.009
x1 = 0.0733 | 860.14 ± 0.61 | 0.599 ± 0.009
